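Where inhibition never reached the appropriate level, the endpoint shown equals the highest concentration tested. Otherwise, values were interpolated linearly from a five-concentration, 48-hour dose response in 96-well plates. GI50 = concentration required for 50% inhibition of growth. The concentration for full growth arrest is given as TGI.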
What was measured:
Experiment in all cases: DTP human tumour cell line panel, 48 h
HCC-2998 colon = tested on: HCC-2998 colon
NCI-H460 lung = tested on: NCI-H460 lung
OVCAR-4 ovarian = tested on: OVCAR-4 ovarian
RPMI-8226 leukemia = tested on: RPMI-8226 leukemia
SF-539 CNS = tested on: SF-539 CNS
SK-OV-3 ovarian = tested on: SK-OV-3 ovarian
UO-31 renal = tested on: UO-31 renal
EKVX NSCLC = tested on: EKVX NSCLC

CCOc1cc(C(C)(C)C)ccc1C1=N[C@@](C)(c2ccc(Cl)cc2)[C@@](C)(c2ccc(Cl)cc2)N1C(=O)N1CCN(CCS(C)(=O)=O)CC1 gave a GI50 (HCC-2998 colon) of 2.28 µM, a TGI (HCC-2998 colon) of 4.98 µM and a GI50 (NCI-H460 lung) of 1.1 µM. For the same compound, the TGI (NCI-H460 lung) was 5.4 µM, the GI50 (OVCAR-4 ovarian) was 2.68 µM and the TGI (OVCAR-4 ovarian) was 38.3 µM. For the same compound, the GI50 (RPMI-8226 leukemia) was 2.49 µM, the TGI (RPMI-8226 leukemia) was 6.77 µM and the GI50 (SF-539 CNS) was 2.32 µM. It also gave a TGI (SF-539 CNS) of 6.16 µM, a GI50 (SK-OV-3 ovarian) of 4.32 µM and a TGI (SK-OV-3 ovarian) of 16.1 µM. It also gave a GI50 (UO-31 renal) of 0.361 µM and a TGI (UO-31 renal) of 1.63 µM.
Compound C1CC[N-]CC1.CC(=N\O)/C(C)=N/O.CC(=N\O)/C(C)=N/O.[CH2-]CCN1CCOCC1.[Co+2] has a GI50 (EKVX NSCLC) of over 100 µM, a TGI (EKVX NSCLC) of over 100 µM and a GI50 (NCI-H460 lung) of over 100 µM. It also gave a TGI (NCI-H460 lung) of over 100 µM, a GI50 (OVCAR-4 ovarian) of over 100 µM and a TGI (OVCAR-4 ovarian) of over 100 µM. The GI50 (RPMI-8226 leukemia) was over 100 µM, the TGI (RPMI-8226 leukemia) was over 100 µM and the GI50 (SF-539 CNS) was over 100 µM. The TGI (SF-539 CNS) was over 100 µM, the GI50 (SK-OV-3 ovarian) was over 100 µM and the TGI (SK-OV-3 ovarian) was over 100 µM. For the same compound, the GI50 (UO-31 renal) was over 100 µM and the TGI (UO-31 renal) was over 100 µM.
In the case of COc1c(N2CCN(Cn3c(O)c(N=NC(=O)c4ccncc4)c4cc(F)ccc43)C(C)C2)c(F)cc2c(=O)c(C(=O)O)cn(C3CC3)c12 (stereo not given), the GI50 (EKVX NSCLC) is reported as 35.2 µM, the TGI (EKVX NSCLC) is reported as over 50 µM and the GI50 (NCI-H460 lung) is reported as 12.4 µM. The TGI (NCI-H460 lung) was over 50 µM, the GI50 (OVCAR-4 ovarian) was over 50 µM and the TGI (OVCAR-4 ovarian) was over 50 µM. The GI50 (RPMI-8226 leukemia) was 15.1 µM, the TGI (RPMI-8226 leukemia) was 47.2 µM and the GI50 (SF-539 CNS) was 14.6 µM. It also gave a TGI (SF-539 CNS) of over 50 µM, a GI50 (SK-OV-3 ovarian) of 39.8 µM and a TGI (SK-OV-3 ovarian) of over 50 µM. It also gave a GI50 (UO-31 renal) of over 50 µM and a TGI (UO-31 renal) of over 50 µM.
For C#Cc1cc2c(N)c(C(=O)c3cc(OC)c(OC)c(OC)c3)[nH]c2cc1OC, the GI50 (HCC-2998 colon) was 42.5 µM, the TGI (HCC-2998 colon) was over 100 µM and the GI50 (NCI-H460 lung) was 0.408 µM. For the same compound, the TGI (NCI-H460 lung) was over 100 µM, the GI50 (OVCAR-4 ovarian) was 0.987 µM and the TGI (OVCAR-4 ovarian) was over 100 µM. It also gave a GI50 (RPMI-8226 leukemia) of 1.84 µM, a TGI (RPMI-8226 leukemia) of 20 µM and a GI50 (SF-539 CNS) of 0.28 µM. It also gave a TGI (SF-539 CNS) of 1.6 µM, a GI50 (SK-OV-3 ovarian) of 0.517 µM and a TGI (SK-OV-3 ovarian) of over 100 µM. The GI50 (UO-31 renal) was 0.722 µM and the TGI (UO-31 renal) was 56.1 µM.
With Nc1c(C(=O)Nc2cccc(Br)c2)sc2nc3c(cc12)C(O)CCC3 (stereo not given) the GI50 (HCC-2998 colon) was 1.61 µM, the TGI (HCC-2998 colon) was 50.2 µM and the GI50 (NCI-H460 lung) was 0.375 µM. It also gave a TGI (NCI-H460 lung) of 22 µM, a GI50 (OVCAR-4 ovarian) of 3.14 µM and a TGI (OVCAR-4 ovarian) of 66 µM. The GI50 (RPMI-8226 leukemia) was 0.404 µM, the TGI (RPMI-8226 leukemia) was 23.5 µM and the GI50 (SF-539 CNS) was 0.337 µM. For the same compound, the TGI (SF-539 CNS) was 2.14 µM, the GI50 (SK-OV-3 ovarian) was 0.57 µM and the TGI (SK-OV-3 ovarian) was 40.8 µM. It also gave a GI50 (UO-31 renal) of 0.685 µM and a TGI (UO-31 renal) of 40.3 µM.
With Cc1cc(O)cc2c1c(=O)c1ccccc1n2C the TGI (EKVX NSCLC) was over 100 µM, the TGI (NCI-H460 lung) was over 100 µM and the TGI (OVCAR-4 ovarian) was over 100 µM. It also gave a TGI (RPMI-8226 leukemia) of over 100 µM, a TGI (SF-539 CNS) of over 100 µM and a TGI (SK-OV-3 ovarian) of over 100 µM. It also gave a TGI (UO-31 renal) of over 100 µM.
CCc1nc(-n2c(-c3ccccc3)nc3ccccc3c2=O)nc(N)c1-c1ccc(Cl)cc1 was tested, and the GI50 (EKVX NSCLC) was over 100 µM, the TGI (EKVX NSCLC) was over 100 µM and the GI50 (NCI-H460 lung) was 8 µM. The TGI (NCI-H460 lung) was over 100 µM, the GI50 (OVCAR-4 ovarian) was over 100 µM and the TGI (OVCAR-4 ovarian) was over 100 µM. It also gave a GI50 (RPMI-8226 leukemia) of 50.3 µM, a TGI (RPMI-8226 leukemia) of over 100 µM and a GI50 (SF-539 CNS) of 23.7 µM. For the same compound, the TGI (SF-539 CNS) was over 100 µM, the GI50 (UO-31 renal) was 48.6 µM and the TGI (UO-31 renal) was over 100 µM.
With CO[C@H](C(=O)O)[C@@H]1Cc2cc3cc(OC4CC(OC5CC(O)C(O)C(C)O5)C(O)C(C)O4)c(C)c(O)c3c(O)c2C(=O)[C@H]1OC1CC(OC2CC(OC3CC(C)(O)C(O)C(C)O3)C(O)C(C)O2)C(O)C(C)O1 (stereo not given in full) the GI50 (EKVX NSCLC) was 0.57 µM, the TGI (EKVX NSCLC) was over 32.5 µM and the GI50 (NCI-H460 lung) was 0.131 µM. It also gave a TGI (NCI-H460 lung) of over 32.5 µM, a GI50 (OVCAR-4 ovarian) of 0.607 µM and a TGI (OVCAR-4 ovarian) of over 32.5 µM. It also gave a GI50 (RPMI-8226 leukemia) of 0.16 µM, a TGI (RPMI-8226 leukemia) of 2.23 µM and a GI50 (SF-539 CNS) of 0.164 µM. The TGI (SF-539 CNS) was 2.02 µM, the GI50 (SK-OV-3 ovarian) was 0.445 µM and the TGI (SK-OV-3 ovarian) was over 32.5 µM. For the same compound, the GI50 (UO-31 renal) was 0.637 µM and the TGI (UO-31 renal) was 5.33 µM.
For Cc1cc(O)c(C(c2ccncc2)c2c(O)cc(C)[nH]c2=O)c(=O)[nH]1, the TGI (EKVX NSCLC) was over 100 µM, the TGI (NCI-H460 lung) was over 100 µM and the TGI (OVCAR-4 ovarian) was over 100 µM. It also gave a TGI (RPMI-8226 leukemia) of over 100 µM, a TGI (SK-OV-3 ovarian) of over 100 µM and a TGI (UO-31 renal) of over 100 µM.
CC(C)(C)C(=O)OCc1nc2cc3c(cc2c(=O)[nH]1)CCC3=O gave a GI50 (HCC-2998 colon) of over 100 µM, a TGI (HCC-2998 colon) of over 100 µM and a GI50 (NCI-H460 lung) of over 100 µM. The TGI (NCI-H460 lung) was over 100 µM, the GI50 (OVCAR-4 ovarian) was over 100 µM and the TGI (OVCAR-4 ovarian) was over 100 µM. The GI50 (RPMI-8226 leukemia) was over 100 µM, the TGI (RPMI-8226 leukemia) was over 100 µM and the GI50 (SF-539 CNS) was over 100 µM. For the same compound, the TGI (SF-539 CNS) was over 100 µM, the GI50 (SK-OV-3 ovarian) was over 100 µM and the TGI (SK-OV-3 ovarian) was over 100 µM. It also gave a GI50 (UO-31 renal) of over 100 µM and a TGI (UO-31 renal) of over 100 µM.
With COc1cc2c(cc1OC)-c1ncc3cc4c(cc3c1C2)OCO4 the GI50 (EKVX NSCLC) was 22 µM, the TGI (EKVX NSCLC) was 72.3 µM and the GI50 (NCI-H460 lung) was 13 µM. For the same compound, the TGI (NCI-H460 lung) was 30.5 µM, the GI50 (OVCAR-4 ovarian) was 57.3 µM and the TGI (OVCAR-4 ovarian) was over 100 µM. The GI50 (RPMI-8226 leukemia) was 5.57 µM, the TGI (RPMI-8226 leukemia) was over 100 µM and the GI50 (SF-539 CNS) was 23.4 µM. The TGI (SF-539 CNS) was 56.1 µM, the GI50 (SK-OV-3 ovarian) was 53 µM and the TGI (SK-OV-3 ovarian) was over 100 µM. It also gave a GI50 (UO-31 renal) of 23.1 µM and a TGI (UO-31 renal) of 63.7 µM.
O=C(CC(=O)c1ccccc1)c1ccccc1 showed a GI50 (EKVX NSCLC) of 11.2 µM, a TGI (EKVX NSCLC) of 38 µM and a GI50 (NCI-H460 lung) of 7.94 µM. For the same compound, the TGI (NCI-H460 lung) was 40 µM, the GI50 (OVCAR-4 ovarian) was 27.9 µM and the TGI (OVCAR-4 ovarian) was over 100 µM. For the same compound, the GI50 (RPMI-8226 leukemia) was 21.3 µM, the TGI (RPMI-8226 leukemia) was over 100 µM and the GI50 (SF-539 CNS) was 4.5 µM. It also gave a TGI (SF-539 CNS) of 16.2 µM, a GI50 (SK-OV-3 ovarian) of 22.2 µM and a TGI (SK-OV-3 ovarian) of over 100 µM. It also gave a GI50 (UO-31 renal) of 36.5 µM and a TGI (UO-31 renal) of over 100 µM.
For CCOC(=O)/C(C#N)=C/Nc1ccc(-c2nc3ccccc3[nH]2)cc1, the GI50 (EKVX NSCLC) was 34.4 µM, the TGI (EKVX NSCLC) was over 100 µM and the GI50 (NCI-H460 lung) was 24.8 µM. It also gave a TGI (NCI-H460 lung) of over 100 µM, a GI50 (OVCAR-4 ovarian) of 31.4 µM and a TGI (OVCAR-4 ovarian) of over 100 µM. It also gave a GI50 (RPMI-8226 leukemia) of 19.7 µM, a TGI (RPMI-8226 leukemia) of over 100 µM and a GI50 (SF-539 CNS) of 21.5 µM. The TGI (SF-539 CNS) was 40.9 µM, the GI50 (SK-OV-3 ovarian) was 25.6 µM and the TGI (SK-OV-3 ovarian) was 99.3 µM. For the same compound, the GI50 (UO-31 renal) was 21.1 µM and the TGI (UO-31 renal) was over 100 µM.
